The values below come from ChEMBL document CHEMBL5380862, “Unsymmetrical Phosphodiesters as GPR84 Antagonists with High Blood Exposure for the Treatment of Lung Inflammation” (J Med Chem, 2023).

Assay [1] addresses G-protein coupled receptor 84 (Homo sapiens, UniProt Q9NQS5). The experiment in a line: Antagonist activity at human GPR84 expressed in HEK293 cells co-expressing Galpha16 assessed as inhibition of 6-OAU induced calcium response incubated for 10 mins by calcium mobilization assay. In kind it is functional, cell-based. (In general: A change in cytosolic calcium serves as a functional read-out for many receptors and channels.)

In assay [2] the test system is Mus musculus. Kind of assay: Protection against C57BL/6 mouse model of LPS-induced acute […] injury assessed as reduction in CD45positive CD11bpositive Ly6Gpositive neutrophils in BALF at 100 mg/kg, po pre-treated with compound for 30 mins followed by LPS-stimulation for 12 hrs and measured 24 hrs post LPS stimulation by flow cytometric analysis. It counts as functional, organism-based. The settings on record: time 24.5 hrs.

Assay [3] has as its system Mus musculus. Kind of assay: Protection against C57BL/6 mouse model of LPS-induced acute […] injury assessed as reduction in CD45positive immune cells in BALF at 100 mg/kg, po pre-treated with compound for 30 mins followed by LPS-stimulation for 12 hrs and measured 24 hrs post LPS stimulation by flow cytometric analysis. To be noted: time 24.5 hrs. It counts as functional, organism-based.

Assay [4] concerns Mus musculus. The experiment in a line: Protection against C57BL/6 mouse model of LPS-induced acute […] injury assessed as amelioration of […] edema at 100 mg/kg, po pre-treated with compound for 30 mins followed by LPS-stimulation for 12 hrs and measured 24 hrs post LPS stimulation by H&E staining based analysis. In kind it is functional, organism-based. To be noted: time 24.5 hrs.

Assay [5] concerns Mus musculus. The experiment in a line: Protection against C57BL/6 mouse model of LPS-induced acute […] injury assessed as reduction in total cells in BALF at 100 mg/kg, po pre-treated with compound for 30 mins followed by LPS-stimulation for 12 hrs and measured 24 hrs post LPS stimulation by flow cytometric analysis. The settings on record: time 24.5 hrs. It counts as functional, organism-based. In general terms: Flow cytometry measures light scatter and fluorescence of single cells or particles in a stream.

Assay [6] concerns Mus musculus. Kind of assay: Protection against C57BL/6 mouse model of LPS-induced acute […] injury assessed as amelioration of thickening of alveolar wall at 100 mg/kg, po pre-treated with compound for 30 mins followed by LPS-stimulation for 12 hrs and measured 24 hrs post LPS stimulation by H&E staining based analysis. It counts as functional, organism-based. The settings on record: time 24.5 hrs.

Assay [7] concerns Mus musculus. Kind of assay: Protection against C57BL/6 mouse model of LPS-induced acute […] injury assessed as reduction in CD45positive CD11bpositive myeloid cells in BALF at 100 mg/kg, po pre-treated with compound for 30 mins followed by LPS-stimulation for 12 hrs and measured 24 hrs post LPS stimulation by flow cytometric analysis. It counts as functional, organism-based. The settings on record: time 24.5 hrs.

Assay [8] relates to Mus musculus. The experiment in a line: Protection against C57BL/6 mouse model of LPS-induced acute […] injury assessed as amelioration of pulmonary congestion at 100 mg/kg, po pre-treated with compound for 30 mins followed by LPS-stimulation for 12 hrs and measured 24 hrs post LPS stimulation by H&E staining based analysis. In kind it is functional, organism-based. The settings on record: time 24.5 hrs.

Structures are written as SMILES. pIC50: −log10 of the molar value. Active and inactive are the calls of the source. The rule behind the calls is not given here.

Sequence of G-protein coupled receptor 84 (Q9NQS5 whole entry): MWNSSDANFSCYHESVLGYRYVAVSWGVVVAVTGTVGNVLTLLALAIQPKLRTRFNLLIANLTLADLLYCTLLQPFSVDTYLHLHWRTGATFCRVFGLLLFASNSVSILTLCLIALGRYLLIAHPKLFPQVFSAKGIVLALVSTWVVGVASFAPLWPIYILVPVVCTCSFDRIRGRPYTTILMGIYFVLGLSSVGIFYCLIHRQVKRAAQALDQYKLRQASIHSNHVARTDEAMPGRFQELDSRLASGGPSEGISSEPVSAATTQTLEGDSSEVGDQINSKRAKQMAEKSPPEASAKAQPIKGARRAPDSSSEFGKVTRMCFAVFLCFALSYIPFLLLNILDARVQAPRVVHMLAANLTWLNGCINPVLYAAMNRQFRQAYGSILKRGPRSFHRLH

A word on the pIC50: it is −log10 of the IC50, conventionally taken in molar units. For `COc1cccc2c1Sc1ccccc1C=C2OP(=O)(O)OC1CCC(C)CC1` (stereo unspecified), the pIC50 in assay [1] is 5.40. For `CCCCCCCCCOP(=O)(O)OC1=Cc2ccccc2Sc2c(OC)cccc21`, in assay [1], the negative-log IC50 (pIC50) was 6.71. Consider `COc1cccc2c1Sc1ccccc1C=C2OP(=O)(O)Oc1cc(C(C)C)ccc1C`, for which the pIC50 in assay [1] is 6.71. For the compound `COc1cccc2c1Sc1ccccc1C=C2OP(=O)(O)Oc1ccc2ccccc2c1`, the pIC50 in assay [1] is 6.22. Turning to `COc1cccc2c1Sc1ccccc1C=C2OP(=O)(O)OC1CCOC1` (stereo unspecified), in assay [1], the pIC50 was 5.40. On to `CCOC(=O)[C@H](CS)NC(C)=O`, for which the result in assay [2], in assay [3], in assay [4], in assay [5], in assay [6] and in assay [7] was Active. Further, the outcome in assay [8] was Active.

Regarding `CC/C=C\CCCCOP(=O)(O)OC1=Cc2ccccc2Sc2c(OC)cccc21`, the pIC50 in assay [1] is 6.29. For the compound `COc1cccc2c1Sc1ccccc1C=C2OP(=O)(O)OC1CC1`, in assay [1], the pIC50 was 4.40. For the compound `COc1cccc2c1Sc1ccccc1C=C2OP(=O)(O)O[C@@H]1C[C@H](C)CC[C@H]1C(C)C`, the pIC50 in assay [1] is 7.17.

With `CCOCCOCCOP(=O)(O)OC1=Cc2ccccc2Sc2c(OC)cccc21`, in assay [1], the pIC50 was 4.66. As for `CC1(C)[C@@H]2CC[C@@](C)(C2)[C@@H]1OP(=O)(O)O[C@@H]1C(C)(C)[C@@H]2CC[C@@]1(C)C2`, in assay [1], the negative-log IC50 (pIC50) is 4.53. `CCCCCCOP(=O)(O)OC1=Cc2ccccc2Sc2c(OC)cccc21`: in assay [1], the pIC50 is 6.49.

As for `COc1cccc2c1Sc1ccccc1C=C2OP(=O)(O)OC1C(C)(C)CCCC1(C)C`, the pIC50 in assay [1] was 6.96. The same measure, in the same setting: the same measure for `CC1(C)[C@@H]2CC[C@@](C)(C2)[C@@H]1OP(=O)(O)OC1=Cc2ccccc2Sc2c(OC(F)(F)F)cccc21`: 7.92. As for `COc1cccc2c1Sc1ccccc1C=C2OP(=O)(O)OC12CC3CC(CC(C3)C1)C2`, in assay [1], the pIC50 is 6.47. `COc1cccc2c1Sc1ccccc1C=C2OP(=O)(O)O[C@H]1C[C@@H](C)CC[C@@H]1C(C)C`: the pIC50 in assay [1] was 7.04.

For `CC1(C)[C@@H]2CC[C@@](C)(C2)[C@@H]1OP(=O)(O)OC1=Cc2ccccc2Oc2ccccc21`, the pIC50 in assay [1] was 6.15. Turning to `CC1(C)[C@@H]2CC[C@@](C)(C2)[C@@H]1OP(=O)(O)OC1=Cc2ccccc2Sc2ccccc21`, the negative-log IC50 (pIC50) in assay [1] is 6.78.

`COc1cccc2c1Sc1ccccc1C=C2OP(=O)(O)OC1CCCCC1C` (stereo unspecified): the pIC50 in assay [1] was 5.76. As for `COc1cccc2c1Sc1ccccc1C=C2OP(=O)(O)Oc1cc(C)ccc1C(C)C`, the pIC50 in assay [1] is 6.18. `CC1(C)[C@@H]2CC[C@@](C)(C2)[C@@H]1OP(=O)(O)OC1=Cc2c(F)cccc2Sc2ccccc21`: the pIC50 in assay [1] was 6.26.

Turning to `COc1cccc2c1Sc1ccccc1C=C2OP(=O)(O)OC12CC3CC(C)(CC(C)(C3)C1)C2`, the negative-log IC50 (pIC50) in assay [1] was 6.90. `COc1cccc2c1Sc1ccccc1C=C2OP(=O)(O)OC`: the pIC50 in assay [1] was 5.55. Take `COc1cccc2c1Sc1ccccc1C=C2OP(=O)(O)Oc1cccc2ccccc12`: in assay [1], the pIC50 was 6.89.

With `CCCCCCCCP(=O)(O)OC1=Cc2ccccc2Sc2c(OC)cccc21`, in assay [1], the pIC50 was 6.66.
